Data published in PubChem BioAssay (NCI).
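Following 48 hours of exposure in 96-well plates, responses at five concentrations were used to interpolate endpoints linearly. GI50 is the concentration that inhibits growth by half. TGI is the concentration that stops growth completely.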

Experiments:
Test in all cases: NCI-60 cell line screen, 48 h
[1] = tested on: HCT-15 colon
[2] = tested on: UO-31 renal
[3] = tested on: EKVX NSCLC
[4] = tested on: MALME-3M melanoma
[5] = tested on: PC-3 prostate
[6] = tested on: MOLT-4 leukemia
[7] = tested on: M14 melanoma
[8] = tested on: NCI-H522 lung
[9] = tested on: T-47D breast
[10] = tested on: OVCAR-4 ovarian
[11] = tested on: SF-268 CNS
[12] = tested on: MDA-MB-435
[13] = tested on: SK-MEL-2 melanoma
[14] = tested on: HT29 colon
[15] = tested on: CCRF-CEM leukemia
[16] = tested on: DU-145 prostate
[17] = tested on: OVCAR-3 ovarian
[18] = tested on: BT-549 breast
[19] = tested on: LOX IMVI melanoma
[20] = tested on: IGROV1 ovarian
[21] = tested on: NCI/ADR-RES ovarian
[22] = tested on: SK-MEL-28 melanoma
[23] = tested on: SK-MEL-5 melanoma
[24] = tested on: HOP-92 NSCLC
[25] = tested on: HL-60(TB) leukemia
[26] = tested on: SN12C renal
[27] = tested on: OVCAR-5 ovarian
[28] = tested on: SR leukemia
[29] = tested on: HCC-2998 colon
[30] = tested on: MCF7 breast
[31] = tested on: 786-0 renal
[32] = tested on: COLO 205 colon
[33] = tested on: A498 renal
[34] = tested on: A549 NSCLC
[35] = tested on: NCI-H460 lung
[36] = tested on: TK-10 renal
[37] = tested on: SF-295 CNS
[38] = tested on: UACC-257 melanoma
[39] = tested on: MDA-MB-231 breast
[40] = tested on: SNB-75 CNS
[41] = tested on: SF-539 CNS
[42] = tested on: K-562 leukemia
[43] = tested on: UACC-62 melanoma
[44] = tested on: OVCAR-8 ovarian
[45] = tested on: NCI-H226 lung
[46] = tested on: ACHN renal
[47] = tested on: CAKI-1 renal
[48] = tested on: KM12 colon
[49] = tested on: HOP-62 NSCLC
[50] = tested on: NCI-H23 lung
[51] = tested on: U251 CNS
[52] = tested on: SW-620 colon
[53] = tested on: SNB-19 CNS
[54] = tested on: SK-OV-3 ovarian

## CN1CCN(c2ccc(Nc3nc(NCCCNS(=O)(=O)c4ccc(C(F)(F)F)cc4)c4sccc4n3)cc2)CC1
[1]
  GI50: 1.58 µM
  TGI: 3.08 µM
[2]
  GI50: 1.69 µM
  TGI: 3.68 µM
[3]
  GI50: 3.73 µM
  TGI: 14.6 µM
[4]
  GI50: 1.72 µM
  TGI: 3.13 µM
[5]
  GI50: 4.27 µM
  TGI: 20.2 µM
[6]
  GI50: 2.13 µM
  TGI: 7.32 µM
[7]
  GI50: 1.89 µM
  TGI: 3.59 µM
[8]
  GI50: 1.77 µM
  TGI: 3.7 µM
[9]
  GI50: 1.89 µM
  TGI: 4.09 µM
[10]
  GI50: 2.62 µM
  TGI: 8.12 µM
[11]
  GI50: 2.39 µM
  TGI: 9.5 µM
[12]
  GI50: 1.79 µM
  TGI: 3.24 µM
[13]
  GI50: 1.78 µM
  TGI: 3.46 µM
[14]
  GI50: 2.11 µM
  TGI: 4.89 µM
[15]
  GI50: 3.42 µM
  TGI: 17 µM
[16]
  GI50: 5.11 µM
  TGI: 16.8 µM
[17]
  GI50: 2.74 µM
  TGI: 6.89 µM
[18]
  GI50: 1.86 µM
  TGI: 3.68 µM
[19]
  GI50: 1.64 µM
  TGI: 3.02 µM
[20]
  GI50: 2.38 µM
  TGI: 6.9 µM
[21]
  GI50: 3.17 µM
  TGI: 11.2 µM
[22]
  GI50: 1.63 µM
  TGI: 3.02 µM
[23]
  GI50: 1.78 µM
  TGI: 3.2 µM
[24]
  GI50: 1.91 µM
  TGI: 6.29 µM
[25]
  GI50: 1.78 µM
  TGI: 3.87 µM
[26]
  GI50: 2.22 µM
  TGI: 6.02 µM
[27]
  GI50: 3.26 µM
  TGI: 13.4 µM
[28]
  GI50: 2.06 µM
  TGI: 6.39 µM
[29]
  GI50: 1.98 µM
  TGI: 3.98 µM
[30]
  GI50: 1.74 µM
  TGI: 3.32 µM
[31]
  GI50: 1.93 µM
  TGI: 3.79 µM
[32]
  GI50: 2.09 µM
  TGI: 4.12 µM
[33]
  GI50: 2.16 µM
  TGI: 3.99 µM
[34]
  GI50: 3.71 µM
  TGI: 21.5 µM
[35]
  GI50: 2.28 µM
  TGI: 4.75 µM
[36]
  GI50: 2.78 µM
  TGI: 8.39 µM
[37]
  GI50: 1.81 µM
  TGI: 3.51 µM
[38]
  GI50: 1.92 µM
  TGI: 3.77 µM
[39]
  GI50: 1.88 µM
  TGI: 3.51 µM
[40]
  GI50: 14.5 µM
  TGI: 28 µM
[41]
  GI50: 1.68 µM
  TGI: 3.05 µM
[42]
  GI50: 1.84 µM
  TGI: 5.52 µM
[43]
  GI50: 1.68 µM
  TGI: 3.11 µM
[44]
  GI50: 3.58 µM
  TGI: 21.8 µM
[45]
  GI50: 9.09 µM
  TGI: 35 µM
[46]
  GI50: 2.69 µM
  TGI: 7.44 µM
[47]
  GI50: 3.05 µM
  TGI: 11.3 µM
[48]
  GI50: 4.3 µM
  TGI: 20.9 µM
[49]
  GI50: 2.6 µM
  TGI: 7.74 µM
[50]
  GI50: 3.41 µM
  TGI: 11.5 µM
[51]
  GI50: 2.62 µM
  TGI: 7.06 µM
[52]
  GI50: 1.89 µM
  TGI: 3.58 µM
[53]
  GI50: 3.6 µM
  TGI: 12.9 µM
[54]
  GI50: 12.7 µM
  TGI: 27.4 µM
